In article PMC8246065 (The EMBO Journal, 2021):
Like-named read-outs stand apart in the source and are kept apart here.

What was measured:
NOD2 = NOD2 (Homo sapiens, UniProt Q9HC29); assay: Microscale thermophoresis (MST) binding to purified NOD2-GFP
Description: The lysates were incubated with 2 ml GFP‐Trap agarose at 4°C for 4 h. The agarose was collected with Poly‐Prep columns by gravity flow. […] To remove heat shock proteins, columns were further washed with 50 ml wash buffer III (50 mM Tris–HCl, pH 7.5, 150 mM NaCl, 5 mM MgCl2+, 1 mM ATP). To elute the proteins, the agarose was mixed with 2 ml elution buffer (100 mM Glycine, pH 2.5) for 1 min and the eluted proteins were immediately neutralized with 0.2 ml of 1 M Tris, pH 10.5.

NOD1∆LRR = biological target: T1, NOD1∆LRR (Homo sapiens, UniProt Q9Y239); assay: MST with cell lysates expressing NOD1 mutants; format: binding; conditions: Fig EV5D
T1 sequence (Q9Y239 1-531 limits assumed): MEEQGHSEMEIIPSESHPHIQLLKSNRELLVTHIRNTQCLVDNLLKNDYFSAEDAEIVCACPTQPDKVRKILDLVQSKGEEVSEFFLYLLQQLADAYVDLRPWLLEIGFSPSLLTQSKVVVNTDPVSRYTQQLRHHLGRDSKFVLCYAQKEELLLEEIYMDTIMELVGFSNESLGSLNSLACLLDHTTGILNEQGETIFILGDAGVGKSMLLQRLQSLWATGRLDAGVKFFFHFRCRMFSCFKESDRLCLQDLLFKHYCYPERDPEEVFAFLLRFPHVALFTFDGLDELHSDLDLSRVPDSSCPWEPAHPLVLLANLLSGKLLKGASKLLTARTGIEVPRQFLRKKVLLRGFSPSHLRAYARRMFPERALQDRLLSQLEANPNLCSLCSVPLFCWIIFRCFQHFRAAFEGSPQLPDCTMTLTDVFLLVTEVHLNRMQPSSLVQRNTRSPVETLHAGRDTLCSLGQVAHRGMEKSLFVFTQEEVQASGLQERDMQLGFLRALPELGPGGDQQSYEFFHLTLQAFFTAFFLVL
Description: Binding of NOD1, NOD2, GFP, or NLRP3‐GFP to different ligands was measured by microscale thermophoresis (MST). 20 nM GFP or GFP‐tagged proteins in MST buffer (PBS pH 7.4, containing 0.5% NP‐40 and 10 mM DTT) was incubated with different concentrations of ligands. Immediately, samples were loaded into standard glass capillaries (NanoTemper) and thermophoresis analysis was performed on a NanoTemper Monolith NT.115 instrument (40% LED, 80% MST power) at 22°C. A laser on‐time of 30 s and a laser off‐time of 5 s were used. The experiment was performed in triplicates, and the MST curves were fitted using NT analysis software to obtain the K d values.

Chain of NOD2 (Q9HC29 whole entry): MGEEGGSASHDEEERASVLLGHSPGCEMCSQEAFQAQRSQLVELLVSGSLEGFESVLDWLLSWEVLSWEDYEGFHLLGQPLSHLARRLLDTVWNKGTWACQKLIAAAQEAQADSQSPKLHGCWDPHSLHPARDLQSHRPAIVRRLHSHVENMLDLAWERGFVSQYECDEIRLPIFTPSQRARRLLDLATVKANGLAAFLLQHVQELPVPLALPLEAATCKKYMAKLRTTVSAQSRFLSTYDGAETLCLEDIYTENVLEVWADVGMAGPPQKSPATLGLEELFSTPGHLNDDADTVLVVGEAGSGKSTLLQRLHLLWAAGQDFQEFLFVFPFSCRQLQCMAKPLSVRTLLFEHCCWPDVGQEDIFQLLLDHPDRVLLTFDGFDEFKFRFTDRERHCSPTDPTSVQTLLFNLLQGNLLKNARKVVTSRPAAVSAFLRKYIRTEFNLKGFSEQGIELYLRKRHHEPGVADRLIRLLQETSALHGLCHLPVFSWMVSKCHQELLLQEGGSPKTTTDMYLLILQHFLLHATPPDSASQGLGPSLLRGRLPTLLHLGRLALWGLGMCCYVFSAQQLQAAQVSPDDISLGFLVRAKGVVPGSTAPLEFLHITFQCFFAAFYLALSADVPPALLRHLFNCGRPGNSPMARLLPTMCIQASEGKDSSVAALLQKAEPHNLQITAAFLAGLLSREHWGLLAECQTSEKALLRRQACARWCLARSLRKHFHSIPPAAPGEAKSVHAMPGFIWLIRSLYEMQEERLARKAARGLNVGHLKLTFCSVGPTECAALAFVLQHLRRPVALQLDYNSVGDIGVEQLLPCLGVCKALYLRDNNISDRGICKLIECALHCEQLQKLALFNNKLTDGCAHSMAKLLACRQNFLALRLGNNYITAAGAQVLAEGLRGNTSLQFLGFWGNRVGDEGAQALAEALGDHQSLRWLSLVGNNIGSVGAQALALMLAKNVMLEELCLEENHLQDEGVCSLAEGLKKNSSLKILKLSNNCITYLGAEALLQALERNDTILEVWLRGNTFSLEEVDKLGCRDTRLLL

CCCCCCCCCCCCC/C=C/[C@@H](O)[C@@H](N)COP(=O)(O)O [S1P, sphingosine‐1‐phosphate]
Kd (NOD2; Fig 6E, one representative experiment, read-out: Kd (NOD2/ligand)): 5.36 ± 1.91 µM | Kd (NOD2; Fig EV5C, purified NOD2, read-out: Kd (NOD2/ligand)): 3.19 ± 1.97 µM | Kd (NOD2; Kd value of S1P interacting with NOD2, as stated in text): ~5 µM | Kd (NOD2; Kd(NOD2: S1P), Fig 7D, S1P alone): 2.4 ± 0.38 µM | Interaction with NOD1∆LRR by MST (NOD1∆LRR): still interacted
